Molecular target: MDM2 (Homo sapiens, UniProt Q00987)
Assay: MDM2 binding screen of Libraries 3 and 4: displacement of fluorescent probe F-M8 at 750 nM macrocycle
Procedure, shortened: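 Cyclic peptide scaffolds were acylated in DMSO with carboxylic acids (20 equiv.), HBTU and DABCO for 6 h at room temperature. Reactions were quenched overnight in 100 mM Tris-Cl pH 7.4, 0.01% Tween20. The fluorescein conjugate was also competed with nutlin-3a.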

[1] = Panel b, Library 3: 63 scaffolds combinatorially acylated with 15 carboxylic acids at 30 picomole scale, displacement of fluorescent peptide probe, macrocycle 750 nM
[2] = Panel c, Library 4: best nine scaffolds and 15 additional carboxylic acids, displacement of fluorescent probe

MDM2, sequence (Q00987 whole entry): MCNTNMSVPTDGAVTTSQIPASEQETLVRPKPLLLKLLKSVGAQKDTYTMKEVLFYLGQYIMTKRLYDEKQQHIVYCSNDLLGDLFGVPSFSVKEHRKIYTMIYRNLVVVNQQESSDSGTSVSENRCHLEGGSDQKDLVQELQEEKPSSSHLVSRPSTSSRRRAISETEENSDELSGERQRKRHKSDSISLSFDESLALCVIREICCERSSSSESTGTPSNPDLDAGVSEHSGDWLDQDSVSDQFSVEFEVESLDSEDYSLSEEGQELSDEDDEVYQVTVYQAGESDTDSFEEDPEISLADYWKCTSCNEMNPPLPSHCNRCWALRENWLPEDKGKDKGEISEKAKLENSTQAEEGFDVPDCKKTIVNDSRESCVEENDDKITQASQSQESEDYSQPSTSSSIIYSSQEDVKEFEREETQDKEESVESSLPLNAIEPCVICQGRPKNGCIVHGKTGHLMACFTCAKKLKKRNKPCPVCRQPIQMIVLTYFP

| SMILES | fraction of fluorescent probe displaced [1] | fraction of fluorescent probe displaced [2] |
| --- | --- | --- |
| O=C1CCSSCCNC(=O)[C@H](Cc2c[nH]c3cc(Cl)ccc23)NC(=O)[C@H](CNC(=O)c2cccc(Oc3ccccc3)c2)NC(=O)C2(CC2)CN1 [X-Amcp-Dap-Cl-Trp + Acid 111] | 0.008 |  |
| O=C(/C=C/c1ccc(OCc2ccccc2)cc1)NC[C@H]1NC(=O)[C@H]2CCCN(C2)C(=O)CCSSCCNC(=O)[C@@H](Cc2c[nH]c3ccccc23)NC1=O [X-Nip-D-Dap-D-Trp + Acid 110] | -0.012 |  |
| O=C1CCSSCCNC(=O)[C@H](Cc2cccc3ccccc23)NC(=O)[C@@H](CNC(=O)c2cccc(Oc3ccccc3)c2)NC(=O)C2(CC2)CN1 [X-Amcp-D-Dap-1-NaI + Acid 111] | 0.008 |  |
| CCCOc1ccc(C=CC(=O)NCC2NC(=O)C3CN(CCO3)C(=O)CCSSCCNC(=O)C(Cc3c[nH]c4ccccc34)NC2=O)cc1 (stereo not drawn) [X-Cop-Dap-Trp + Acid 118] |  | 0.158 |
| O=C(NC[C@H]1NC(=O)[C@@H]2CN(CCO2)C(=O)CCSSCCNC(=O)[C@H](Cc2c[nH]c3ccccc23)NC1=O)c1cccc(Oc2ccccc2)c1 [X-Cop-D-Dap-Trp + Acid 111] | 0.015 |  |
| CN1C(=O)CN(CCNC(=O)/C=C/c2ccc(OCc3ccccc3)cc2)C(=O)C2(CC2)CNC(=O)CCSSCCNC(=O)[C@@H]1Cc1c[nH]c2ccccc12 [X-Amcp-N-Aeg-NMe-Trp + Acid 110] | -0.00533 |  |
| Cn1cc(C[C@@H]2NC(=O)CN(CCNC(=O)c3ccc(Cl)cc3)C(=O)C3(CC3)CNC(=O)CCSSCCNC2=O)c2ccccc21 [X-Amcp-N-Aeg-Me-Trp + Acid 25] | -0.012 |  |
| O=C1CCSSCCNC(=O)[C@H](Cc2c[nH]c3ccccc23)NC(=O)[C@@H](CNC(=O)c2ccc3ccccc3c2)NC(=O)C2(CC2)CN1 [X-Amcp-D-Dap-Trp + Acid 107] | 0.024 |  |
| O=C1CN(CCNC(=O)c2ccc(Cl)cc2)C(=O)[C@H]2CCCN(C2)C(=O)CCSSCCNC(=O)[C@H](Cc2ccc3ccccc3c2)N1 [X-Nip-N-Aeg-2-Nal + Acid 25] | 0.00133 |  |
| CC(C)c1ccc(/C=C/C(=O)NC[C@@H]2NC(=O)[C@@H]3CN(CCO3)C(=O)CCSSCCNC(=O)[C@H](Cc3c[nH]c4cc(Cl)ccc34)NC2=O)cc1 [X-Cop-Dap-Cl-Trp + Acid 127] |  | 0.085 |
| CN1C(=O)[C@@H](CNC(=O)/C=C/c2ccc(OCc3ccccc3)cc2)NC(=O)[C@@H]2CN(CCO2)C(=O)CCSSCCNC(=O)[C@@H]1Cc1c[nH]c2ccccc12 [X-Cop-D-Dap-NMe-Trp + Acid 110] | 0.015 |  |
| O=C1CCSSCCNC(=O)[C@@H](Cc2c[nH]c3ccccc23)NC(=O)[C@H](CNC(=O)c2ccc3ccccc3c2)NC(=O)C2(CC2)CN1 [X-Amcp-Dap-D-Trp + Acid 107] | 0.050 |  |
| O=C1CCSSCCNC(=O)[C@H](Cc2c[nH]c3ccccc23)NC(=O)[C@H](CNC(=O)c2cnc3ccccc3n2)NC(=O)C2(CC2)CN1 [X-Amcp-Dap-Trp + Acid 130] |  | 0.0035 |
| O=C(/C=C/c1ccc(Cl)cc1)NCCN1CC(=O)N[C@H](Cc2c[nH]c3ccccc23)C(=O)NCCSSCCC(=O)N2CCO[C@@H](C2)C1=O [X-Cop-N-Aeg-D-Trp + Acid 108] | 0.015 |  |
| O=C(/C=C/c1ccc2ccccc2c1)NCCN1CC(=O)N[C@@H](Cc2c[nH]c3ccccc23)C(=O)NCCSSCCC(=O)N2CCO[C@@H](C2)C1=O [X-Cop-N-Aeg-Trp + Acid 112] | 0.028 |  |
| O=C(/C=C/c1cccc(Cl)c1)NC[C@@H]1NC(=O)[C@H]2CCCN(C2)C(=O)CCSSCCNC(=O)[C@H](Cc2c[nH]c3ccccc23)NC1=O [X-Nip-Dap-Trp + Acid 121] |  | 0.468 |
| O=C(/C=C/c1ccc2ccccc2c1)NC[C@@H]1NC(=O)[C@H]2CCCN(C2)C(=O)CCSSCCNC(=O)[C@H](Cc2c[nH]c3ccccc23)NC1=O [X-Nip-Dap-Trp + Acid 112] | 0.574 |  |
| CN1C(=O)[C@H](CNC(=O)c2ccc(Cl)s2)NC(=O)C2(CC2)CNC(=O)CCSSCCNC(=O)[C@@H]1Cc1c[nH]c2ccccc12 [X-Amcp-Dap-NMe-Trp + Acid 14] | -0.025 |  |
| O=C(O)C1CC1c1ccccc1 (centres unmarked) [Acid 105] | -0.00844 |  |
| CN1C(=O)CN(CCNC(=O)c2ccc(Cl)cc2)C(=O)C2CN(CCO2)C(=O)CCSSCCNC(=O)C1Cc1c[nH]c2ccccc12 (centres unmarked) [X-Cop-N-Aeg-NMe-Trp + Acid 25] | 0.021 |  |
| CCCOc1ccc(/C=C/C(=O)NC[C@@H]2NC(=O)[C@H]3CCCN(C3)C(=O)CCSSCCNC(=O)[C@H](Cc3c[nH]c4ccccc34)NC2=O)cc1 [X-Nip-Dap-Trp + Acid 118] |  | 0.435 |
| O=C1CCSSCCNC(=O)[C@H](Cc2c[nH]c3ccccc23)NC(=O)CN(CCNC(=O)c2ccc(Cl)cc2)C(=O)C2(CC2)CN1 [X-Amcp-N-Aeg-Trp + Acid 25] | 0.00133 |  |

| SMILES | fraction of fluorescent probe displaced [1] | fraction of fluorescent probe displaced [2] |
| --- | --- | --- |
| O=C(/C=C/c1ccc2ccccc2c1)NC[C@H]1NC(=O)[C@@H]2CN(CCO2)C(=O)CCSSCCNC(=O)[C@@H](Cc2c[nH]c3ccccc23)NC1=O [X-Cop-D-Dap-D-Trp + Acid 112] | 0.021 |  |
| CN1C(=O)CN(CCNC(=O)c2ccc(Cl)s2)C(=O)C2(CC2)CNC(=O)CCSSCCNC(=O)[C@@H]1Cc1c[nH]c2ccccc12 [X-Amcp-N-Aeg-NMe-Trp + Acid 14] | -0.012 |  |
| O=C1CCSSCCNC(=O)[C@@H](Cc2c[nH]c3ccccc23)NC(=O)CN(CCNC(=O)C2COc3ccccc3O2)C(=O)C2(CC2)CN1 (stereo partly drawn) [X-Amcp-N-Aeg-D-Trp + Acid 115] | 0.048 |  |
| O=C(/C=C/c1cccc(C(F)(F)F)c1)NC[C@@H]1NC(=O)C2(CC2)CNC(=O)CCSSCCNC(=O)[C@H](Cc2c[nH]c3ccccc23)NC1=O [X-Amcp-Dap-Trp + Acid 122] |  | 0.052 |
| O=C1CN(CCNC(=O)C2COc3ccccc3O2)C(=O)[C@@H]2CN(CCO2)C(=O)CCSSCCNC(=O)[C@@H](Cc2c[nH]c3ccccc23)N1 (stereo partly drawn) [X-Cop-N-Aeg-D-Trp + Acid 115] | -0.00533 |  |
| O=C(/C=C/c1ccncc1)NC[C@@H]1NC(=O)C2(CC2)CNC(=O)CCSSCCNC(=O)[C@H](Cc2ccc3ccccc3c2)NC1=O [X-Amcp-Dap-2-Nal + Acid 106] | -0.002 |  |
| O=C(/C=C/c1ccc(Cl)c(Cl)c1)NC[C@@H]1NC(=O)C2(CC2)CNC(=O)CCSSCCNC(=O)[C@H](Cc2c[nH]c3ccccc23)NC1=O [X-Amcp-Dap-Trp + Acid 119] |  | 0.069 |
| CN1C(=O)CN(CCNC(=O)c2ccc(Cl)cc2)C(=O)C2(CC2)CNC(=O)CCSSCCNC(=O)[C@@H]1Cc1c[nH]c2ccccc12 [X-Amcp-N-Aeg-NMe-Trp + Acid 25] | -0.012 |  |
| CC(=Cc1ccccc1)C(=O)NCC1NC(=O)C2CCCN(C2)C(=O)CCSSCCNC(=O)C(Cc2ccc3ccccc3c2)NC1=O (stereo not drawn) [X-Nip-Dap-2-Nal + Acid 123] |  | 0.012 |
| O=C(/C=C/c1ccc2ccccc2c1)NC[C@H]1NC(=O)[C@H]2CCCN(C2)C(=O)CCSSCCNC(=O)[C@H](Cc2ccc3ccccc3c2)NC1=O [X-Nip-D-Dap-2-Nal + Acid 112] | 0.008 |  |
| O=C1CCSSCCNC(=O)[C@H](Cc2c[nH]c3ccccc23)NC(=O)[C@@H](CNC(=O)c2cccc(Oc3ccccc3)c2)NC(=O)C2(CC2)CN1 [X-Amcp-D-Dap-Trp + Acid 111] | 0.008 |  |
| Cn1cc(C[C@@H]2NC(=O)[C@H](CNC(=O)c3ccc(Cl)s3)NC(=O)C3(CC3)CNC(=O)CCSSCCNC2=O)c2ccccc21 [X-Amcp-Dap-Me-Trp + Acid 14] | 0.008 |  |
| CC(Oc1cccc(Cl)c1)C(=O)NC[C@@H]1NC(=O)C2(CC2)CNC(=O)CCSSCCNC(=O)[C@H](Cc2cccc3ccccc23)NC1=O (some centres unmarked) [X-Amcp-Dap-1-NaI + Acid 113] | -0.012 |  |
| O=C(/C=C/c1ccc(Cl)c(Cl)c1)NC[C@@H]1NC(=O)[C@H]2CCCN(C2)C(=O)CCSSCCNC(=O)[C@H](Cc2c[nH]c3ccccc23)NC1=O [X-Nip-Dap-Trp + Acid 119] |  | 0.435 |
| CCOc1ccc(/C=C/C(=O)O)cc1 [Acid 117] |  | 0.028 |
| O=C1CCSSCCNC(=O)[C@H](Cc2cccc3ccccc23)NC(=O)[C@H](CNC(=O)c2ccc3ccccc3c2)NC(=O)C2(CC2)CN1 [X-Amcp-Dap-1-NaI + Acid 107] | -0.00844 |  |
| CC(Oc1cccc(Cl)c1)C(=O)NCCN1CC(=O)N[C@@H](Cc2c[nH]c3ccccc23)C(=O)NCCSSCCC(=O)NCC2(CC2)C1=O (some centres unmarked) [X-Amcp-N-Aeg-Trp + Acid 113] | 0.035 |  |
| O=C(NC[C@H]1NC(=O)[C@H]2CCCN(C2)C(=O)CCSSCCNC(=O)[C@H](Cc2cccc3ccccc23)NC1=O)c1ccc(Cl)s1 [X-Nip-D-Dap-1-NaI + Acid 14] | -0.019 |  |
| O=C(NC[C@@H]1NC(=O)[C@H]2CCCN(C2)C(=O)CCSSCCNC(=O)[C@@H](Cc2c[nH]c3ccccc23)NC1=O)c1ccc(Cl)cc1 [X-Nip-Dap-D-Trp + Acid 25] | -0.045 |  |
| Cn1cc(CC2NC(=O)C(CNC(=O)C3CC3c3ccccc3)NC(=O)C3(CC3)CNC(=O)CCSSCCNC2=O)c2ccccc21 [X-Amcp-D-Dap-Me-Trp + Acid 105] | -0.002 |  |
| Cn1cc(C[C@@H]2NC(=O)[C@H](CNC(=O)CCS(=O)(=O)c3ccccc3)NC(=O)[C@H]3CCCN(C3)C(=O)CCSSCCNC2=O)c2ccccc21 [X-Nip-Dap-Me-Trp + Acid 114] | -0.00533 |  |
| O=C1CN(CCNC(=O)c2cccc(Oc3ccccc3)c2)C(=O)[C@H]2CCCN(C2)C(=O)CCSSCCNC(=O)[C@H](Cc2c[nH]c3ccccc23)N1 [X-Nip-N-Aeg-Trp + Acid 111] | 0.015 |  |
